Experimental data published in patent US20070253942A1, “Lectin-directed prodrug delivery system” (Isis Innovation Limited, priority 2001, published 2007).
One block for each molecule: values may come before it.

Assay: Tritosomal stability of p-nitrophenyl glycosides
Type: in vitro ADME, rat
Settings: for tritosomal cleavage (production of p-nitrophenol, absorbance at 410 nm): substrate 31.0 mg/ml in DMSO, 37° C., after 20 hours; for Readings from spectrometer, absorbance at 410 nm, Assay 1 / Readings from spectrometer, absorbance at 410 nm, Assay 2: rat, pH 5.5
From the text: One essential facet of the LEAPT concept is that the rhamnoside-capped prodrugs will be cleaved only by the selectively delivered naringinase construct. To ensure that this is possible, a lysosomal tritosome preparation was used to assess the potential cleavage of α-L-rhamnopyranosides by enzymes in the hepatocytes. p-Nitrophenyl α-L-rhamnopyranoside was used as a chromogenic prodrug mimic. If there are enzymes present in the hepatocytes capable of cleaving α-L-rhamnopyranosidic linkages, this would be detected over an extended assay by the production of p-nitrophenol. Assay conditions based on those used in 2.2.4 were recreated with the used of pNP-α-L-Rha instead of the protease substrate. The mixture was incubated at 37° C. and the absorbance at 410 nm recorded every 5 minutes.
With the concentration of pNP-α-L-Rha increased ten-fold, the tritosomal stability of rhamnopyranosides was reassessed.
Further assessments of the glycosidic enzymes present in the tritosomal preparation were required to allow further design of prodrugs. An assay equivalent to 2.8.7 was used to assess β-D-galactopyranosidic activity.
Further assessments of the glycosidic enzymes present in the tritosomal preparation were required to allow further design of prodrugs. An assay equivalent to 2.3.7 was used to assess β-D-glucopyranosidic activity.
A stock solution of p-nitrophenyl α-L-rhamnopyranoside in DMSO (3.1 mg/ml, equivalent to BzPheValArgNap solution) was used in an assay equivalent to 2.8.4.
As no activity against α-L-rhamnopyranosides was detected in the previous assay, a higher concentration of pNPαL-Rha (31.0 mg/ml) in DMSO was used in an otherwise identical assay. In addition, the cuvette was incubated at 37° C. for 20 hours and the absorbance reading repeated.
A stock solution of p-nitrophenyl β-D-galactopyranoside in DMSO (31.0 mg/ml) was used in an assay equivalent to 2.8.7. In addition, the cuvette was incubated at 37° C. for 20 hours and the absorbance reading repeated.
A stock solution of p-nitrophenyl β-D-glucopyranoside in DMSO (31.0 mg/ml) was used in an assay equivalent to 2.8.7. In addition, the cuvette was incubated at 37° C. for 20 hours and the absorbance reading repeated.

Structure (SMILES): O=[N+]([O-])c1ccc(O[C@@H]2O[C@H](CO)[C@H](O)[C@H](O)[C@H]2O)cc1 [pNP-β-D-Gal, p-nitrophenyl β-D-galactopyranoside]
tritosomal cleavage (production of p-nitrophenol, absorbance at 410 nm): significant amount of p-nitrophenol had been released

Readings from spectrometer, absorbance at 410 nm, Assay 1 (0 min, 0.093 mg/ml): 0.158 | Readings from spectrometer, absorbance at 410 nm, Assay 2 (0 min, 0.093 mg/ml): 0.160 | Readings from spectrometer, absorbance at 410 nm, Assay 1 (0 min, 0.93 mg/ml): 0.173 | Readings from spectrometer, absorbance at 410 nm, Assay 2 (0 min, 0.93 mg/ml): 0.172 | Readings from spectrometer, absorbance at 410 nm, Assay 1 (5 min, 0.093 mg/ml): 0.155 | Readings from spectrometer, absorbance at 410 nm, Assay 2 (5 min, 0.093 mg/ml): 0.159 | Readings from spectrometer, absorbance at 410 nm, Assay 1 (5 min, 0.93 mg/ml): 0.169 | Readings from spectrometer, absorbance at 410 nm, Assay 2 (5 min, 0.93 mg/ml): 0.170 | Readings from spectrometer, absorbance at 410 nm, Assay 1 (10 min, 0.093 mg/ml): 0.153 | Readings from spectrometer, absorbance at 410 nm, Assay 2 (10 min, 0.093 mg/ml): 0.159 | Readings from spectrometer, absorbance at 410 nm, Assay 1 (10 min, 0.93 mg/ml): 0.166 | Readings from spectrometer, absorbance at 410 nm, Assay 2 (10 min, 0.93 mg/ml): 0.167 | Readings from spectrometer, absorbance at 410 nm, Assay 1 (15 min, 0.093 mg/ml): 0.151 | Readings from spectrometer, absorbance at 410 nm, Assay 2 (15 min, 0.093 mg/ml): 0.158 | Readings from spectrometer, absorbance at 410 nm, Assay 1 (15 min, 0.93 mg/ml): 0.165 | Readings from spectrometer, absorbance at 410 nm, Assay 2 (15 min, 0.93 mg/ml): 0.166 | Readings from spectrometer, absorbance at 410 nm, Assay 1 (20 min, 0.093 mg/ml): 0.150 | Readings from spectrometer, absorbance at 410 nm, Assay 2 (20 min, 0.093 mg/ml): 0.159 | Readings from spectrometer, absorbance at 410 nm, Assay 1 (20 min, 0.93 mg/ml): 0.162 | Readings from spectrometer, absorbance at 410 nm, Assay 2 (20 min, 0.93 mg/ml): 0.164 | Readings from spectrometer, absorbance at 410 nm, Assay 1 (25 min, 0.093 mg/ml): 0.150 | Readings from spectrometer, absorbance at 410 nm, Assay 2 (25 min, 0.093 mg/ml): 0.157 | Readings from spectrometer, absorbance at 410 nm, Assay 1 (25 min, 0.93 mg/ml): 0.161 | Readings from spectrometer, absorbance at 410 nm, Assay 2 (25 min, 0.93 mg/ml): 0.165 | Readings from spectrometer, absorbance at 410 nm, Assay 1 (30 min, 0.093 mg/ml): 0.149 | Readings from spectrometer, absorbance at 410 nm, Assay 2 (30 min, 0.093 mg/ml): 0.157 | Readings from spectrometer, absorbance at 410 nm, Assay 1 (30 min, 0.93 mg/ml): 0.158 | Readings from spectrometer, absorbance at 410 nm, Assay 2 (30 min, 0.93 mg/ml): 0.163 | Readings from spectrometer, absorbance at 410 nm, Assay 1 (20 h, 0.93 mg/ml): 0.138 | Readings from spectrometer, absorbance at 410 nm, Assay 2 (20 h, 0.93 mg/ml): 0.131
Structure (SMILES): C[C@@H]1O[C@@H](Oc2ccc([N+](=O)[O-])cc2)[C@H](O)[C@H](O)[C@H]1O [pNP-α-L-Rha, p-Nitrophenyl α-L-rhamnopyranoside]

Structure (SMILES): O=[N+]([O-])c1ccc(O[C@@H]2O[C@H](CO)[C@@H](O)[C@H](O)[C@H]2O)cc1 [pNP-β-D-Glc, p-nitrophenyl β-D-glucopyranoside]
tritosomal cleavage (production of p-nitrophenol, absorbance at 410 nm): significant amount of p-nitrophenol had been released
